{"source": "the supplement of paper PMC10307832", "assay_in_all_cases": "relative viability (nuclei count vs DMSO), 5 days (fraction); higher = more cells survive", "key": {"NCI-H1563": {"system": "NCI-H1563", "procedure,_shortened": "(§1)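 Lung cancer cell lines in 1536-well plates got either a single drug or a fixed anchor-drug dose together with five library-drug doses (not always all listed) in √10 steps, by pin tool, on the day after seeding. Nuclei were counted after 5 days, and relative viability is the treated-to-vehicle ratio of nuclei counts. Values are medians of duplicate plates.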"}, "NCI-H1623": {"system": "NCI-H1623", "procedure,_shortened": "as §1"}, "NCI-H2342": {"system": "NCI-H2342", "procedure,_shortened": "as §1"}, "NCI-H522": {"system": "NCI-H522", "procedure,_shortened": "as §1"}, "SW 900": {"system": "SW 900", "procedure,_shortened": "as §1"}, "A549": {"system": "A549", "procedure,_shortened": "as §1"}}}
{"smiles": "Cc1cnc(-c2cnc(NCCNc3ccc(C#N)cn3)nc2-c2ccc(Cl)cc2Cl)[nH]1", "note": "+ Cc1nc(Nc2ncc(C(=O)Nc3c(C)cccc3Cl)s2)cc(N2CCN(CCO)CC2)n1 [Dasatinib] (partner 0.075 µM)", "values": [{"measurement": "relative viability", "setting": "NCI-H1563; first compound 0.08 µM", "value": 0.439}, {"measurement": "relative viability", "setting": "NCI-H1563; first compound 0.253 µM", "value": 0.471}, {"measurement": "relative viability", "setting": "NCI-H1563; first compound 0.8 µM", "value": 0.51}, {"measurement": "relative viability", "setting": "NCI-H1563; first compound 2.53 µM", "value": 0.429}, {"measurement": "relative viability", "setting": "NCI-H1623; first compound 0.08 µM", "value": 0.5}, {"measurement": "relative viability", "setting": "NCI-H1623; first compound 0.253 µM", "value": 0.536}, {"measurement": "relative viability", "setting": "NCI-H1623; first compound 0.8 µM", "value": 0.472}, {"measurement": "relative viability", "setting": "NCI-H1623; first compound 2.53 µM", "value": 0.516}, {"measurement": "relative viability", "setting": "NCI-H2342; first compound 0.08 µM", "value": 0.325}, {"measurement": "relative viability", "setting": "NCI-H2342; first compound 0.253 µM", "value": 0.321}, {"measurement": "relative viability", "setting": "NCI-H2342; first compound 0.8 µM", "value": 0.301}, {"measurement": "relative viability", "setting": "NCI-H2342; first compound 2.53 µM", "value": 0.278}, {"measurement": "relative viability", "setting": "NCI-H522; first compound 0.08 µM", "value": 0.845}, {"measurement": "relative viability", "setting": "NCI-H522; first compound 0.253 µM", "value": 0.996}, {"measurement": "relative viability", "setting": "NCI-H522; first compound 0.8 µM", "value": 0.737}, {"measurement": "relative viability", "setting": "NCI-H522; first compound 2.53 µM", "value": 0.844}, {"measurement": "relative viability", "setting": "SW 900; first compound 0.08 µM", "value": 0.64}, {"measurement": "relative viability", "setting": "SW 900; first compound 0.253 µM", "value": 0.425}, {"measurement": "relative viability", "setting": "SW 900; first compound 0.8 µM", "value": 0.343}, {"measurement": "relative viability", "setting": "SW 900; first compound 2.53 µM", "value": 0.404}]}
{"smiles": "O=c1[nH]c2ccccc2n1C1CCN(CCCC(c2ccc(F)cc2)c2ccc(F)cc2)CC1", "note": "[Pimozide] + N=C(N)NC(=N)NCCc1ccccc1 [Phenformin] (partner 250 µM)", "values": [{"measurement": "relative viability", "setting": "A549; first compound 0.08 µM", "value": 0.154}, {"measurement": "relative viability", "setting": "A549; first compound 0.253 µM", "value": 0.171}, {"measurement": "relative viability", "setting": "A549; first compound 0.8 µM", "value": 0.152}, {"measurement": "relative viability", "setting": "A549; first compound 2.53 µM", "value": 0.156}, {"measurement": "relative viability", "setting": "A549; first compound 8 µM", "value": 0.173}, {"measurement": "relative viability", "setting": "NCI-H1563; first compound 0.08 µM", "value": 0.721}, {"measurement": "relative viability", "setting": "NCI-H1563; first compound 0.253 µM", "value": 0.771}, {"measurement": "relative viability", "setting": "NCI-H1563; first compound 0.8 µM", "value": 0.668}, {"measurement": "relative viability", "setting": "NCI-H1563; first compound 2.53 µM", "value": 0.663}, {"measurement": "relative viability", "setting": "NCI-H1563; first compound 8 µM", "value": 0.64}, {"measurement": "relative viability", "setting": "NCI-H1623; first compound 0.253 µM", "value": 0.575}, {"measurement": "relative viability", "setting": "NCI-H1623; first compound 0.8 µM", "value": 0.57}, {"measurement": "relative viability", "setting": "NCI-H1623; first compound 2.53 µM", "value": 0.617}, {"measurement": "relative viability", "setting": "NCI-H1623; first compound 8 µM", "value": 0.629}, {"measurement": "relative viability", "setting": "NCI-H2342; first compound 0.08 µM", "value": 0.655}, {"measurement": "relative viability", "setting": "NCI-H2342; first compound 0.253 µM", "value": 0.543}, {"measurement": "relative viability", "setting": "NCI-H2342; first compound 0.8 µM", "value": 0.555}, {"measurement": "relative viability", "setting": "NCI-H2342; first compound 2.53 µM", "value": 0.536}, {"measurement": "relative viability", "setting": "NCI-H2342; first compound 8 µM", "value": 0.639}, {"measurement": "relative viability", "setting": "NCI-H522; first compound 0.08 µM", "value": 0.569}, {"measurement": "relative viability", "setting": "NCI-H522; first compound 0.253 µM", "value": 0.655}, {"measurement": "relative viability", "setting": "NCI-H522; first compound 0.8 µM", "value": 0.628}, {"measurement": "relative viability", "setting": "NCI-H522; first compound 2.53 µM", "value": 0.804}, {"measurement": "relative viability", "setting": "NCI-H522; first compound 8 µM", "value": 0.671}, {"measurement": "relative viability", "setting": "SW 900; first compound 0.08 µM", "value": 0.574}, {"measurement": "relative viability", "setting": "SW 900; first compound 0.253 µM", "value": 0.685}, {"measurement": "relative viability", "setting": "SW 900; first compound 0.8 µM", "value": 0.375}, {"measurement": "relative viability", "setting": "SW 900; first compound 2.53 µM", "value": 0.552}, {"measurement": "relative viability", "setting": "SW 900; first compound 8 µM", "value": 0.516}]}
{"smiles": "Cc1cnc(-c2cnc(NCCNc3ccc(C#N)cn3)nc2-c2ccc(Cl)cc2Cl)[nH]1", "note": "+ CCNC(=O)c1noc(-c2cc(C(C)C)c(O)cc2O)c1-c1ccc(CN2CCOCC2)cc1 [Luminespib] (partner 0.01 µM)", "values": [{"measurement": "relative viability", "setting": "NCI-H1563; first compound 0.08 µM", "value": 0.473}, {"measurement": "relative viability", "setting": "NCI-H1563; first compound 0.253 µM", "value": 0.535}, {"measurement": "relative viability", "setting": "NCI-H1563; first compound 0.8 µM", "value": 0.499}, {"measurement": "relative viability", "setting": "NCI-H1563; first compound 2.53 µM", "value": 0.439}, {"measurement": "relative viability", "setting": "NCI-H1623; first compound 0.08 µM", "value": 0.594}, {"measurement": "relative viability", "setting": "NCI-H1623; first compound 0.253 µM", "value": 0.622}, {"measurement": "relative viability", "setting": "NCI-H1623; first compound 0.8 µM", "value": 0.542}, {"measurement": "relative viability", "setting": "NCI-H1623; first compound 2.53 µM", "value": 0.507}, {"measurement": "relative viability", "setting": "NCI-H2342; first compound 0.08 µM", "value": 0.825}, {"measurement": "relative viability", "setting": "NCI-H2342; first compound 0.253 µM", "value": 0.654}, {"measurement": "relative viability", "setting": "NCI-H2342; first compound 0.8 µM", "value": 0.694}, {"measurement": "relative viability", "setting": "NCI-H2342; first compound 2.53 µM", "value": 0.584}, {"measurement": "relative viability", "setting": "NCI-H522; first compound 0.08 µM", "value": 1.14}, {"measurement": "relative viability", "setting": "NCI-H522; first compound 0.253 µM", "value": 1.02}, {"measurement": "relative viability", "setting": "NCI-H522; first compound 0.8 µM", "value": 0.99}, {"measurement": "relative viability", "setting": "NCI-H522; first compound 2.53 µM", "value": 1.31}, {"measurement": "relative viability", "setting": "SW 900; first compound 0.08 µM", "value": 0.196}, {"measurement": "relative viability", "setting": "SW 900; first compound 0.253 µM", "value": 0.168}, {"measurement": "relative viability", "setting": "SW 900; first compound 0.8 µM", "value": 0.206}, {"measurement": "relative viability", "setting": "SW 900; first compound 2.53 µM", "value": 0.203}]}
{"smiles": "Cc1cnc(-c2cnc(NCCNc3ccc(C#N)cn3)nc2-c2ccc(Cl)cc2Cl)[nH]1", "note": "+ N=C(N)NC(=N)NCCc1ccccc1 [Phenformin] (partner 250 µM)", "values": [{"measurement": "relative viability", "setting": "A549; first compound 0.08 µM", "value": 0.168}, {"measurement": "relative viability", "setting": "A549; first compound 0.253 µM", "value": 0.154}, {"measurement": "relative viability", "setting": "A549; first compound 0.8 µM", "value": 0.151}, {"measurement": "relative viability", "setting": "A549; first compound 2.53 µM", "value": 0.154}, {"measurement": "relative viability", "setting": "NCI-H1563; first compound 0.08 µM", "value": 0.649}, {"measurement": "relative viability", "setting": "NCI-H1563; first compound 0.253 µM", "value": 0.647}, {"measurement": "relative viability", "setting": "NCI-H1563; first compound 0.8 µM", "value": 0.636}, {"measurement": "relative viability", "setting": "NCI-H1563; first compound 2.53 µM", "value": 0.635}, {"measurement": "relative viability", "setting": "NCI-H1623; first compound 0.08 µM", "value": 0.527}, {"measurement": "relative viability", "setting": "NCI-H1623; first compound 0.253 µM", "value": 0.503}, {"measurement": "relative viability", "setting": "NCI-H1623; first compound 0.8 µM", "value": 0.581}, {"measurement": "relative viability", "setting": "NCI-H1623; first compound 2.53 µM", "value": 0.589}, {"measurement": "relative viability", "setting": "NCI-H2342; first compound 0.08 µM", "value": 0.622}, {"measurement": "relative viability", "setting": "NCI-H2342; first compound 0.8 µM", "value": 0.635}, {"measurement": "relative viability", "setting": "NCI-H2342; first compound 2.53 µM", "value": 0.577}, {"measurement": "relative viability", "setting": "NCI-H522; first compound 0.08 µM", "value": 0.639}, {"measurement": "relative viability", "setting": "NCI-H522; first compound 0.253 µM", "value": 0.707}, {"measurement": "relative viability", "setting": "NCI-H522; first compound 0.8 µM", "value": 0.65}, {"measurement": "relative viability", "setting": "NCI-H522; first compound 2.53 µM", "value": 0.666}, {"measurement": "relative viability", "setting": "SW 900; first compound 0.08 µM", "value": 0.771}, {"measurement": "relative viability", "setting": "SW 900; first compound 0.253 µM", "value": 0.588}, {"measurement": "relative viability", "setting": "SW 900; first compound 0.8 µM", "value": 0.644}, {"measurement": "relative viability", "setting": "SW 900; first compound 2.53 µM", "value": 0.391}]}
